Source: patent US10543212B2, “Substituted amines for treating cardiac diseases” (Cardurion Pharmaceuticals, LLC, priority 2017, dated 2020)
Like-named read-outs stand apart in the source and are kept apart here.

How the values were obtained:
[1] = molecular target: T1, Full-length, GST-tagged, human CaMKIIδ (Homo sapiens, UniProt Q13557); assay: CaMKIIδ binding assay (TR-FRET with BODIPY-labeled probe ligand)
T1 construct: Full-Length, Glutathione-S-Transferase(GST)-Tagged, Human CaMKIIδ was purchased from Carna Biosciences; purchased Carna Biosciences 02-111
T1 sequence (Q13557 1-478 isoform Q13557-12): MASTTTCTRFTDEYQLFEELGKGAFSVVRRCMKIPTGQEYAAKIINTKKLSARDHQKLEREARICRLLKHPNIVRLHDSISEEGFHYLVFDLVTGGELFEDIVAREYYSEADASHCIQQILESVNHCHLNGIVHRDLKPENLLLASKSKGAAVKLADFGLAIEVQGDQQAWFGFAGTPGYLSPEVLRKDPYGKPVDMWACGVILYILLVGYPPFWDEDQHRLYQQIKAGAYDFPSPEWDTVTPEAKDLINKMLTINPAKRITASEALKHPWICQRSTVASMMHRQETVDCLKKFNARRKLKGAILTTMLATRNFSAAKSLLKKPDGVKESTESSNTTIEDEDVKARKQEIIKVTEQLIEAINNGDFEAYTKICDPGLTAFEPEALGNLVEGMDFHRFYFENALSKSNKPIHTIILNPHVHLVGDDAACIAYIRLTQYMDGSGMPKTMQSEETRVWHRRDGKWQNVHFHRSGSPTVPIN
In short: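 TR-FRET probe-displacement binding: 0.5 nM GST-CaMKIIδ with 10 μg/mL calmodulin, 1 mM CaCl2, 0.21 nM Tb-anti-GST Ab and 300 nM BODIPY probe in HEPES pH 7.6 buffer. Eight-point 4-fold dilutions, 1 hr at room temperature. IC50 from logistic fit; 100% inhibition defined by 3 μM parent compound.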

[2] = tested on: phosphorylation of CaMKII-specific site of phospholamban (Thr17, PLN) in the heart; assay: In vivo cardiac CaMKII inhibition (P-PLN Thr17 in rat left ventricle, Western blotting); conditions: po, 30 mg/kg p.o., male SD rat left ventricle, vs vehicle-treated group, read-out: Reduction rate of P-PLN
Method: To evaluate potency of test compounds to inhibit cardiac CaMKII kinase in vivo, phosphorylation levels of CaMKII-specific sites of phospholamban (Thr17, PLN) were measured in the heart of rats administered with test compounds at various doses.
Test compounds were suspended in 0.5% [w/v] methylcellulose/water solution and administered (10 or 30 mg/kg) to male CD (SD) IGS rat (6-8 weeks old, n=4) by the p.o. route (5 mL/kg). At 2-4 hours after the administration, rats were sacrificed and the hearts were harvested. After washing the isolated hearts with ice-cold saline, connective tissues were removed on ice, and the isolated left ventricle were frozen into liquid nitrogen gas and stored at −80° C.
The left ventricle samples were homogenized in RIPA-buffer containing phosphatase inhibitors and protease inhibitors. Samples were analyzed by Western blotting using anti-P-PLN (Thr17, Santa Cruz Biotechnology, sc-17024-R) antibody. The band intensities were quantified using an imaging system and were normalized relative to the vehicle-treated group.

C[C@@H](Cn1cnnn1)Oc1cc(-c2cnc(Nc3cn(C4CCN(C5CCOCC5)CC4)nc3OCC(F)(F)F)nc2)ccc1Cl [Example 677, (S)-5-(3-((1-(1H-tetrazol-1-yl)propan-2-yl)oxy)-4-chlorophenyl)-N-(1-(1-(tetrahydro-2H-pyran-4-yl)piperidin-4-yl)-3-(2,2,2-trifluoroethoxy)-1H-pyrazol-4-yl)pyrimidin-2-amine]
IC50 ([1]; Table 2, activity class for CaMKIIδ): < 10 nM | inhibition in vivo at 30 mg/kg ([2]; 2 hr after administration): > 50%

C[C@@H](Cn1cnnn1)Oc1cc(-c2cnc(Nc3cn(C4CC5(C4)CN(CC(C)(C)O)C5)nc3OCC(F)(F)F)nc2)ccc1Cl [Example 946, (S)-1-(6-(4-((5-(3-((1-(1H-tetrazol-1-yl)propan-2-yl)oxy)-4-chlorophenyl)pyrimidin-2-yl)amino)-3-(2,2,2-trifluoroethoxy)-1H-pyrazol-1-yl)-2-azaspiro[3.3]heptan-2-yl)-2-methylpropan-2-ol]
IC50 ([1]; CaMKIIδ binding assay, activity class per Table 2): < 10 nM | inhibition in vivo at 30 mg/kg ([2]; 4 hr after administration): > 50%
